System: Secretion of ApoB
Experiment: Quantification of the secretion of ApoB in HepG2 cells
Assay type: cell-based
Conditions: Homo sapiens, HepG2, 24 h, 24 hours of incubation with test compound, immunoprecipitation of apoB from medium, read-out: pIC50 value (=-log IC50 value), secretion of ApoB (converted)
How it was run: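 At 70% confluency, HepG2 cells in MEM with 10% FCS received compound or DMSO carrier (0.4% final) for 24 h. Secreted apoB in cleared medium immunoprecipitated with sheep anti-apoB then rabbit anti-sheep antibody (24 h each, 8° C); pellet radioactivity counted by liquid scintillation; IC50 expressed as pIC50.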

Row | Structure (SMILES) | IC50
1 | CCOC(=O)c1ccccc1NC(=O)C(c1ccccc1)N1CCN(c2ccc(-n3cnn(C(C)C)c3=O)cc2)CC1 (centres unmarked) [Compound 206] | 0.0316 to 0.316 µM
2 | CCC(C)n1nc(C)n(-c2ccc(N3CCC(C(C(=O)Nc4ccc5c(c4)CCC5)c4ccccc4)CC3)cc2)c1=O (centres unmarked) [Compound 207] | < 0.0316 µM
3 | CC(c1ccccc1)n1ncn(-c2ccc(N3CCN(C(C(=O)Nc4ccc5c(c4)CCC5)c4ccccc4)CC3)cc2)c1=O (centres unmarked) [Compound 208] | 0.316 to 3.16 µM
4 | O=C(Nc1ccc2c(c1)CCC2)C(c1ccccc1)C1CCN(c2ccc(-n3nc4ccccn4c3=O)cc2)CC1 (centres unmarked) [Compound 211] | < 0.0316 µM
5 | O=C(Nc1ccc2c(c1)CCC2)C(c1ccccc1)C1CCN(c2ccc(-n3ncn(Cc4ccccc4)c3=O)cc2)CC1 (centres unmarked) [Compound 212] | < 0.0316 µM
6 | CC(C)n1ncn(-c2ccc(N3CCC(CC(=O)Nc4ccc5c(c4)CCC5)CC3)cc2)c1=O [Compound 213] | 0.316 to 3.16 µM
7 | Cc1cc(N2CCN(C(C(=O)Nc3ccc4c(c3)CCC4)c3ccccc3)CC2)ccc1-n1ccn(C(C)C)c1=O (centres unmarked) [Compound 214] | < 0.0316 µM
8 | CC(C)n1ncn(-c2ccc(N3CCN(C(C(=O)Nc4ccc5c(c4)CCC5)c4ccccc4)CC3)c(Cl)c2)c1=O (centres unmarked) [Compound 215] | < 0.0316 µM
9 | CC(C)n1ncn(-c2ccc(N3CCN(C(C(=O)Nc4ccc5c(c4)CCC5)c4ccccc4)CC3)c(F)c2)c1=O (centres unmarked) [Compound 216] | 0.0316 to 0.316 µM
10 | CCOC(=O)C(c1ccccc1)N1CCN(c2ccc(-n3cnn(C(C)C)c3=O)c(C)c2)CC1 (centres unmarked) [Compound 217] | 0.0316 to 0.316 µM
11 | Cc1cc(N2CCN(C(C(=O)Nc3ccc4c(c3)CCC4)c3ccccc3)CC2)ccc1-n1cnn(C(C)C)c1=O (centres unmarked) [Compound 218] | < 0.0316 µM
12 | CCOC(=O)C(c1ccccc1)N1CCN(c2ccc(N3CCN(C(C)C)C3=O)c(C)c2)CC1 (centres unmarked) [Compound 219] | 0.316 to 3.16 µM
13 | Cc1cc(N2CCN(C(C(=O)Nc3ccc4c(c3)CCC4)c3ccccc3)CC2)ccc1N1CCN(C(C)C)C1=O (centres unmarked) [Compound 220] | < 0.0316 µM
14 | CCOC(=O)C(c1ccccc1)N1CCC(c2ccc(-n3ccn(C(C)c4ccccc4)c3=O)cc2)CC1 (centres unmarked) [Compound 221] | 0.0316 to 0.316 µM
15 | CCOC(=O)C(c1ccccc1)C1CCN(c2ccc(-n3ccn(C(C)c4ccccc4)c3=O)cc2)CC1 (centres unmarked) [Compound 222] | 0.0316 to 0.316 µM
16 | CCOC(=O)C(c1ccccc1)N1CCC(c2ccc(-n3ccn([C@@H](C)c4ccc(F)cc4)c3=O)cc2)CC1 (some centres unmarked) [Compound 223] | 0.316 to 3.16 µM
17 | CCOC(=O)C(c1ccccc1)N1CCC(c2ccc(-n3ccn([C@H](C)c4ccc(F)cc4)c3=O)cc2)CC1 (some centres unmarked) [Compound 224] | 0.0316 to 0.316 µM
18 | CCOC(=O)C(c1ccccc1)N1CCC(c2ccc(-n3ccn([C@H](C)c4cccc5ccccc45)c3=O)cc2)CC1 (some centres unmarked) [Compound 225] | 0.0316 to 0.316 µM
19 | CCOC(=O)C(c1ccccc1)N1CCC(c2ccc(-n3ccn([C@@H](C)c4cccc5ccccc45)c3=O)cc2)CC1 (some centres unmarked) [Compound 226] | 0.316 to 3.16 µM
20 | CCOC(=O)C(c1ccccc1)N1CCC(c2ccc(-n3ccn([C@H](C)c4ccccc4)c3=O)cc2)CC1 (some centres unmarked) [Compound 227] | 0.0316 to 0.316 µM
21 | CCOC(=O)C(c1ccccc1)N1CCC(c2ccc(-n3ccn([C@@H](C)c4ccccc4)c3=O)cc2)CC1 (some centres unmarked) [Compound 228] | 0.316 to 3.16 µM
22 | CCOC(=O)C(c1ccccc1)N1CCC(c2ccc(-n3ccn([C@H](C)c4ccc(Br)cc4)c3=O)cc2)CC1 (some centres unmarked) [Compound 229] | 0.0316 to 0.316 µM

Row | Structure (SMILES) | IC50
23 | CCOC(=O)C(c1ccccc1)N1CCC(c2ccc(-n3ccn([C@@H](C)c4ccc(Br)cc4)c3=O)cc2)CC1 (some centres unmarked) [Compound 230] | 0.316 to 3.16 µM
24 | CCOC(=O)C(c1ccccc1)N1CCC(c2ccc(-n3ccn([C@@H](C)c4ccc5ccccc5c4)c3=O)cc2)CC1 (some centres unmarked) [Compound 231] | 0.316 to 3.16 µM
25 | CCOC(=O)C(c1ccccc1)N1CCC(c2ccc(-n3ccn([C@H](C)c4ccc5ccccc5c4)c3=O)cc2)CC1 (some centres unmarked) [Compound 232] | 0.0316 to 0.316 µM
26 | CCOC(=O)C(c1ccccc1)N1CCC(c2ccc(-n3ccn([C@H](C)c4ccc(C)cc4)c3=O)cc2)CC1 (some centres unmarked) [Compound 233] | 0.0316 to 0.316 µM
27 | CCOC(=O)C(c1ccccc1)N1CCC(c2ccc(-n3ccn([C@@H](C)c4ccc(C)cc4)c3=O)cc2)CC1 (some centres unmarked) [Compound 234] | 0.316 to 3.16 µM
28 | CCOC(=O)C(c1ccccc1)N1CCC(c2ccc(-n3ccn([C@H](C)c4ccc(Cl)cc4)c3=O)cc2)CC1 (some centres unmarked) [Compound 235] | 0.0316 to 0.316 µM
29 | CCOC(=O)C(c1ccccc1)N1CCC(c2ccc(-n3ccn([C@@H](C)c4ccc(Cl)cc4)c3=O)cc2)CC1 (some centres unmarked) [Compound 236] | 0.316 to 3.16 µM
30 | CCOC(=O)C(c1ccccc1)N1CCC(c2ccc(-n3ccn([C@H](C)c4cccc(OC)c4)c3=O)cc2)CC1 (some centres unmarked) [Compound 237] | 0.0316 to 0.316 µM
31 | CCOC(=O)C(c1ccccc1)N1CCC(c2ccc(-n3ccn([C@@H](C)c4cccc(OC)c4)c3=O)cc2)CC1 (some centres unmarked) [Compound 238] | 0.316 to 3.16 µM
32 | CCOC(=O)C(c1ccccc1)N1CCC(c2ccc(-n3ccn([C@H](COC)c4ccccc4)c3=O)cc2)CC1 (some centres unmarked) [Compound 239] | 0.316 to 3.16 µM
33 | CCOC(=O)C(c1ccccc1)N1CCC(c2ccc(-n3ccn([C@@H](COC)c4ccccc4)c3=O)cc2)CC1 (some centres unmarked) [Compound 240] | 0.316 to 3.16 µM
34 | CCOC(=O)C(c1ccccc1)N1CCC(c2ccc(-n3ccn([C@@H](C)C4CCCCC4)c3=O)cc2)CC1 (some centres unmarked) [Compound 241] | 0.316 to 3.16 µM
35 | CCOC(=O)C(c1ccccc1)N1CCC(c2ccc(-n3ccn(C(CC)c4ccccc4)c3=O)cc2)CC1 (centres unmarked) [Compound 242] | 0.0316 to 0.316 µM
36 | CCOC(=O)C(c1ccccc1)C1CCN(c2ccc(-n3ccn([C@@H](C)c4ccc(F)cc4)c3=O)cc2)CC1 (some centres unmarked) [Compound 243] | 0.316 to 3.16 µM
37 | CCOC(=O)C(c1ccccc1)C1CCN(c2ccc(-n3ccn([C@H](C)c4ccc(F)cc4)c3=O)cc2)CC1 (some centres unmarked) [Compound 244] | 0.0316 to 0.316 µM
38 | CCOC(=O)C(c1ccccc1)C1CCN(c2ccc(-n3ccn([C@H](C)c4cccc5ccccc45)c3=O)cc2)CC1 (some centres unmarked) [Compound 245] | 0.316 to 3.16 µM
39 | CCOC(=O)C(c1ccccc1)C1CCN(c2ccc(-n3ccn([C@@H](C)c4cccc5ccccc45)c3=O)cc2)CC1 (some centres unmarked) [Compound 246] | 0.316 to 3.16 µM
40 | CCOC(=O)C(c1ccccc1)C1CCN(c2ccc(-n3ccn([C@H](C)c4ccccc4)c3=O)cc2)CC1 (some centres unmarked) [Compound 247] | 0.0316 to 0.316 µM
41 | CCOC(=O)C(c1ccccc1)C1CCN(c2ccc(-n3ccn([C@@H](C)c4ccccc4)c3=O)cc2)CC1 (some centres unmarked) [Compound 248] | 0.316 to 3.16 µM
42 | CCOC(=O)C(c1ccccc1)C1CCN(c2ccc(-n3ccn([C@H](C)c4ccc(Br)cc4)c3=O)cc2)CC1 (some centres unmarked) [Compound 249] | 0.0316 to 0.316 µM
43 | CCOC(=O)C(c1ccccc1)C1CCN(c2ccc(-n3ccn([C@@H](C)c4ccc(Br)cc4)c3=O)cc2)CC1 (some centres unmarked) [Compound 250] | 0.316 to 3.16 µM
44 | CCOC(=O)C(c1ccccc1)C1CCN(c2ccc(-n3ccn([C@@H](C)c4ccc5ccccc5c4)c3=O)cc2)CC1 (some centres unmarked) [Compound 251] | 0.316 to 3.16 µM

Row | Structure (SMILES) | IC50
45 | CCOC(=O)C(c1ccccc1)C1CCN(c2ccc(-n3ccn([C@H](C)c4ccc5ccccc5c4)c3=O)cc2)CC1 (some centres unmarked) [Compound 252] | 0.316 to 3.16 µM
46 | CCOC(=O)C(c1ccccc1)C1CCN(c2ccc(-n3ccn([C@H](C)c4ccc(C)cc4)c3=O)cc2)CC1 (some centres unmarked) [Compound 253] | 0.0316 to 0.316 µM
47 | CCOC(=O)C(c1ccccc1)C1CCN(c2ccc(-n3ccn([C@@H](C)c4ccc(C)cc4)c3=O)cc2)CC1 (some centres unmarked) [Compound 254] | 0.316 to 3.16 µM
48 | CCOC(=O)C(c1ccccc1)C1CCN(c2ccc(-n3ccn([C@H](C)c4ccc(Cl)cc4)c3=O)cc2)CC1 (some centres unmarked) [Compound 255] | 0.0316 to 0.316 µM
49 | CCOC(=O)C(c1ccccc1)C1CCN(c2ccc(-n3ccn([C@@H](C)c4ccc(Cl)cc4)c3=O)cc2)CC1 (some centres unmarked) [Compound 256] | 0.316 to 3.16 µM
50 | CCOC(=O)C(c1ccccc1)C1CCN(c2ccc(-n3ccn([C@H](C)c4cccc(OC)c4)c3=O)cc2)CC1 (some centres unmarked) [Compound 257] | 0.316 to 3.16 µM
51 | CCOC(=O)C(c1ccccc1)C1CCN(c2ccc(-n3ccn([C@@H](C)c4cccc(OC)c4)c3=O)cc2)CC1 (some centres unmarked) [Compound 258] | 0.316 to 3.16 µM
52 | CCOC(=O)C(c1ccccc1)C1CCN(c2ccc(-n3ccn([C@H](COC)c4ccccc4)c3=O)cc2)CC1 (some centres unmarked) [Compound 259] | 0.316 to 3.16 µM
53 | CCOC(=O)C(c1ccccc1)C1CCN(c2ccc(-n3ccn([C@@H](COC)c4ccccc4)c3=O)cc2)CC1 (some centres unmarked) [Compound 260] | 0.316 to 3.16 µM
54 | CCOC(=O)C(c1ccccc1)C1CCN(c2ccc(-n3ccn([C@@H](C)C4CCCCC4)c3=O)cc2)CC1 (some centres unmarked) [Compound 261] | 0.0316 to 0.316 µM
55 | CCOC(=O)C(c1ccccc1)C1CCN(c2ccc(-n3ccn([C@H](C)C4CCCCC4)c3=O)cc2)CC1 (some centres unmarked) [Compound 262] | 0.0316 to 0.316 µM
56 | CCOC(=O)C(c1ccccc1)C1CCN(c2ccc(-n3ccn(C(CC)c4ccccc4)c3=O)cc2)CC1 (centres unmarked) [Compound 263] | 0.0316 to 0.316 µM
57 | COC(=O)CC1CCN(c2ccc(-n3ccn(C(C)c4ccccc4)c3=O)cc2)CC1 (centres unmarked) [Compound 264] | 0.316 to 3.16 µM
58 | CCOC(=O)C(c1ccccc1)N1CCN(c2ccc(-n3cnn(C(C)c4ccccc4)c3=O)cc2)CC1 (centres unmarked) [Compound 265] | 0.316 to 3.16 µM
59 | CCOC(=O)C(c1ccccc1)N1CCN(c2ccc(-n3cnn(C(C)c4ccc(F)cc4)c3=O)cc2)CC1 (centres unmarked) [Compound 266] | 0.316 to 3.16 µM
60 | CCOC(=O)C(c1ccccc1)N1CCC(c2ccc(-n3ccn([C@H](C)c4cccc(C(F)(F)F)c4)c3=O)cc2)CC1 (some centres unmarked) [Compound 276] | 0.0316 to 0.316 µM
61 | CCOC(=O)C(c1ccccc1)N1CCC(c2ccc(-n3ccn([C@H](C)c4ccc(C(F)(F)F)cc4)c3=O)cc2)CC1 (some centres unmarked) [Compound 277] | 0.0316 to 0.316 µM
62 | CCOC(=O)C(c1ccccc1)N1CCC(c2ccc(-n3ccn([C@H](C)c4ccccc4F)c3=O)cc2)CC1 (some centres unmarked) [Compound 278] | 0.0316 to 0.316 µM
63 | CCOC(=O)C(c1ccccc1)N1CCC(c2ccc(-n3ccn([C@@H](C)c4ccccc4F)c3=O)cc2)CC1 (some centres unmarked) [Compound 279] | 0.316 to 3.16 µM
64 | COC(=O)c1cc(NC(=O)C(c2ccccc2)N2CCN(c3ccc(-n4cnn(C(C)c5ccccc5)c4=O)cc3)CC2)ccc1C (centres unmarked) [Compound 283] | < 0.0316 µM
65 | COC(=O)c1cc(NC(=O)C(c2ccccc2)N2CCC(c3ccc(-n4cnn(C(C)c5ccccc5)c4=O)cc3)CC2)ccc1C (centres unmarked) [Compound 284] | < 0.0316 µM
